In ChEMBL document CHEMBL1121724 (J Med Chem, 1981):

test system: Thromboxane-A synthase (Oryctolagus cuniculus); test: not given; conditions: at 100 µM

SMILES | inhibition
c1cscn1 | 17.3%
c1ccnnc1 | 16.8%
c1cn[nH]c1 | 8.9%
c1ncncn1 | 11%

target: T1, Thromboxane-A synthase (Homo sapiens) (UniProt P24557); test: Inhibition of Thromboxane synthetase at 100 µM; conditions: not given
T1 sequence (whole entry): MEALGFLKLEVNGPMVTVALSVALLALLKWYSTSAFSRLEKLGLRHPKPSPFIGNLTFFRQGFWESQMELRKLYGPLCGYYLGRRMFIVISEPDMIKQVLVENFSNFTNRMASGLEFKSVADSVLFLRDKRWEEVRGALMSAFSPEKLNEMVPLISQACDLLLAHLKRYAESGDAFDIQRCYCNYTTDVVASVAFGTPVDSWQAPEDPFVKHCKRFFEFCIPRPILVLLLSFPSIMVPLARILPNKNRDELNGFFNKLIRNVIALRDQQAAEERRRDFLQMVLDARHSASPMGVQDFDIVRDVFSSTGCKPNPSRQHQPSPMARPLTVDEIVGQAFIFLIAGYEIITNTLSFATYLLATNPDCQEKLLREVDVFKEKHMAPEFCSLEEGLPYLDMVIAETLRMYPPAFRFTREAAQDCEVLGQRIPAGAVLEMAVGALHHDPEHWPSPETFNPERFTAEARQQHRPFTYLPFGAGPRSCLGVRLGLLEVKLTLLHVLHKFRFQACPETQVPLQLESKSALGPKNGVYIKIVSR

SMILES | inhibition
c1cncnc1 | 12%

target: Thromboxane-A synthase (Oryctolagus cuniculus); test: Inhibitory activity against Thromboxane synthetase; conditions: not given

SMILES | IC50
O=C(O)CCCCCCc1cccnc1 | 68 nM
O=C(O)CCc1ccc(Cc2cccnc2)cc1 | 210 nM
C/C(=C\c1ccc(Cc2cccnc2)s1)C(=O)O | 12 nM
CC(Cc1ccc(Cc2cccnc2)cc1)C(=O)O (stereo not drawn) | 20 nM
O=C(O)/C(Br)=C/c1ccc(Cc2cccnc2)cc1 | 5 nM
O=C(O)CCCCCCc1ccncc1 | > 1000 nM
O=C(O)CCCCCCCc1ccncc1 | > 1000 nM
O=C(O)CCCCCn1ccnc1 | > 1000 nM
O=C(O)CCCCn1ccnc1 | > 1000 nM
C/C(=C\c1ccc(Cn2ccnc2)cc1)C(=O)O | 4 nM
O=C(O)CCCCc1cccnc1 | 500 nM
C/C(=C/c1ccc(Cc2cccnc2)cc1)C(=O)O | 3 nM
O=C(O)CCCCc1ccncc1 | > 1000 nM
C/C(=C\C(=O)O)c1ccc(Cc2cccnc2)c(C)c1 | 18 nM
O=C(O)/C=C/c1ccc(Cc2cccnc2)cc1 | 10 nM
C/C(=C\c1ccc(Cc2ccncc2)cc1)C(=O)O | > 1000 nM
C/C(=C\C(=O)O)c1ccc(Cc2cccnc2)cc1 | 56 nM
C/C(=C\c1ccc(C(C)c2cccnc2)cc1)C(=O)O (stereo not drawn) | 25 nM
CC/C(=C\c1ccc(Cc2cccnc2)cc1)C(=O)O | 7 nM
O=C(O)CCCCCCCc1cccnc1 | 76 nM
O=C(O)CCCCCc1ccncc1 | > 1000 nM
O=C(O)/C=C/c1ccc(Cc2cccnc2)s1 | 47 nM
O=C(O)CCCCCc1cccnc1 | 86 nM
